In patent publication US5169984A, “Synthesis and characterization of N-bromoacetyl-3,3'5-triiodo-L-thyronine using high speed countercurrent chromatography” (The United States of America as represented by the …, priority 1990, dated 1992):

Conditions: crude, prior to HSCCC; ethyl acetate, well-sealed container, -20° C., over four months
Description: Chromatograms were monitored by radioactivity. In FIG. 2A the sample was freshly prepared while in FIG. 2B the sample was stored for 4.2 months in ethyl acetate at -20° C. […] Other conditions were the same as in FIGS. 1A and 1B.

O=C(CBr)N[C@@H](Cc1cc(I)c(Oc2ccc(O)c(I)c2)c(I)c1)C(=O)O [BrAc[^125 I]T3, ^125 I-labeled N-bromoacetyl-3,3',5-triiodo-L-thyronine]
decomposition on storage: partial decomposition
